Measured values published in PMC5464627, “Design of short peptides to block BTLA/HVEM interactions for promoting anticancer T-cell responses” (PLoS ONE, 2017).
Positions of bridges follow the written chain, without caps; N, C: chain ends.

Experiments:
[1] = test system: BTLA/HVEM interaction (BTLA-Fc coated, HVEM-Fc); assay: Competitive BTLA/HVEM ELISA; type: binding, human; settings: peptide or amino acid at 5, 1 and 0.1 mg/mL, 2 h at 37°C; relative to PBS (0%) and anti-BTLA 7.1 mAb (100%); at least two experiments in triplicate
From the text: (§1) The recombinant human BTLA protein used in affinity tests was purchased form Novoprotein (Company product code: C563). For ELISA, recombinant human BTLA-Fc, HVEM-Fc as well as anti-human BTLA (#7.1) blocking monoclonal antibody (mAb) and anti-human HVEM (#11.8) non-blocking mAb were described previously. Anti-HVEM mAb was biotinylated using the Biotin Labeling Kit-NH2 (Abnova, #KA0003), according manufacturer’s instruction.
96-well round bottom plates (medium binding; Greiner Bio-One) were coated with 400 ng/well of recombinant BTLA-Fc protein in PBS (50 μL/well) and incubated overnight at 4°C. Wells were washed twice with PBS-T (phosphate buffer saline with 0.1% Tween-20, pH 7.4) and blocked with 1% milk in PBS-T for 1 hour at 37°C. […] Maximum binding of HVEM to BTLA was controlled by adding 1% milk/PBS-T to negative control wells, whereas maximum inhibition was monitored by adding anti-BTLA 7.1 mAb (0.1 μg/well). Next, the plate was washed and incubated with recombinant HVEM-Fc protein at 400 ng/well in 1% milk/PBS-T for 1 hour at 37°C. Biotinylated anti-HVEM 11.8 antibody was then added (biotinylated preparation diluted at 1/10 000 in 1% milk/PBS-T) and incubated for 1 hour at 37°C. Streptavidin horseradish peroxidase (Dako) was finally added at a 1/8000 dilution in 1% BSA/PBS-T for 30 min at 37°C and detected with TMB (Biorad). The substrate reaction was blocked with 0.2 M H2SO4 and the absorbance was read at 450 nm and 630 nm. […] Statistical analysis of the results was performed using the one-way analysis of variance (one-way ANOVA).

[2] = test system: 293T cells expressing BTLA, binding of rhHVEM-Fc; assay: BTLA/HVEM interaction cell line assay (flow cytometry); type: cell-based; settings: 293T cells expressing human BTLA pre-incubated with 5 mg/mL for 1 h at 4°C, then rhHVEM-Fc 8 μg/ml and AF647 anti-human IgG; at least two experiments in triplicate
Experimental: 293T cells expressing BTLA (generous gift from Dr. C. Krummenacher, University of Pennsylvania, USA) were maintained in culture with RPMI 10% FCS supplemented with 0.2 mg/ml hygromycin B. 2x10^5 293T cells expressing BTLA were incubated with […] 8μg/ml in PBS 0.5% BSA for 30min at 4°C. Cells were then washed and incubated with goat anti-human Fc conjugated with AF647 for 20min at 4°C (Jackson ImmunoResearch, #109-606-170). Inhibition of HVEM-BTLA binding by different peptides was assessed by pre-incubating the cells with the different peptides at 5 mg/ml for 1h at 4°C. BTLA expression was controlled by anti-BTLA APC-conjugated antibody (Biolegend, #344510). Maximum inhibition of binding was determined by adding anti-BTLA7.1 antibody for 1h at 4°C at 2μg/ml before adding […]. Sample acquisition was performed on the Gallios Flow-Cytometer (Beckman Coulter) and data were analyzed using the FlowJo Software (TreeStar).  Fig 7 Blocking capacity of HVEM(23-39) fragment and free amino acids in a cellular assay. 293T cells expressing human BTLA were incubated with peptides or free amino acids (5mg/mL) prior labeling with […] AF647-conjugated anti-human IgG antibody (at least two experiments in triplicate).

[3] = test system: recombinant human BTLA protein; assay: Microcolumn affinity test (BTLA-Sepharose, MALDI-MS of fractions); type: binding; settings: for Interaction with BTLA immobilised in microcolumn (in words): BTLA-Sepharose microcolumn, 2 h at 25°C, pH 7.4, MS of elution fraction; for Elution [M+H]+1 (peptide signal in elution fraction = complex with BTLA formed; - = no signal): BTLA immobilised on NHS-Sepharose microcolumn, peptide incubated 2 h at 25°C in NH4HCO3 pH 7.4, eluted with 0.1% TFA, MALDI TOF/TOF
Experimental: as §1
The immobilization of BTLA protein in a microcolumn was performed using the NHS-activated acid-coupled Sepharose 4B (Sigma Aldrich). BTLA protein was dissolved in 100 μl of coupling buffer (0.2 M NaHCO3, 0.5 M NaCl, pH 8.3) and was added to 0.06 g NHS-activated Sepharose in 100 μl of coupling buffer. The coupling reaction was performed for 1 hour in 25°C and the mixture was transferred into the microcolumn (MoBiTec, Goettingen, Germany). The microcolumn with immobilized protein was washed alternately with 10 ml of solution blocking buffer (0.1 M amino ethanol, 0.5 M NaCl, pH 8.3) and washing buffer (0.1 M CH3COONa, 0.5 M NaCl, pH 4). This step was repeated 4 times. The microcolumn was stored in PBS (pH 7.4).
Peptide affinity assay using NHS-activated Sepharose microcolumn was already described elsewhere. The peptides were added onto BTLA-Sepharose column equilibrated in ammonium hydrogen carbonate (NH4HCO3, pH 7.4) and incubated for 2 h at 25°C with gentle shaking. After this time the unbound peptide was removed and the column was washed with […] NH4HCO3 and 20 ml of H2O. Dissociation of the protein—peptide complex was performed using 0.1% TFA in H2O (2 x 0.5 ml) by 15 minutes. All fractions were analyzed using mass spectrometry (MALDI TOF/TOF™ 5800, AB SCIEX).
Fig 2 Microcolumn affinity test. Microcolumn affinity test results for binding of HVEM(23–39) fragment to BTLA: (A) supernatant, (B) last wash and (C) elution fractions. The MS measurements were done with the use of MALDI TOF/TOF 5800 (ABSciex, Germany). As a matrix α-cyano-4-hydroxycinnamic acid (CHCA, 10 mg/ml, Sigma-Aldrich) was used. The measurements were done in reflector positive mass mode with previous mass calibration with commercial standard peptide mixture (The Peptide Mass Standards Kit for Calibration of AB SCIEX MALDI-TOF™ Instruments).

[4] = Ellman's assay of free thiols; type: physicochemical; settings: for Presence of free thiol groups: DTNB, 0.1 M sodium phosphate pH 7.4, 1 mM EDTA, absorbance at 412 nm
Experimental: The presence of free thiols was investigated using Ellman’s assay. DTNB (Sigma Aldrich) was first dissolved in reaction buffer (0.1 M sodium phosphate, pH 7.4, containing 1 mM EDTA) at a concentration of 4 mg/ml. Then peptides and recombinant BTLA-Fc, alone or mixed together (ratio 1:1) were added in DTNB reaction buffer. After 15 minutes of incubation, the SH content of protein samples was then assessed by the measurement of absorbance at 412 nm. For each sample, the absorbance value from the blank was subtracted.

[5] = target: T1, recombinant human BTLA-Fc (human, UniProt Q7Z6A9 31-157); assay: ELISA; competitive: BTLA-Fc coated at 400 ng/well; peptides in 1% milk/PBS-T 2 h at 37°C; washed; HVEM-Fc 400 ng/well 1 h at 37°C; detected with biotinylated anti-HVEM 11.8 and streptavidin-HRP; percent inhibition relative to anti-BTLA 7.1 mAb (100%) and buffer (0%); settings: both partners purified
T1 construct: B and T lymphocyte attenuator (BTLA), human, fused to Fc; also called rhBTLA-Fc
T1 sequence (looked up): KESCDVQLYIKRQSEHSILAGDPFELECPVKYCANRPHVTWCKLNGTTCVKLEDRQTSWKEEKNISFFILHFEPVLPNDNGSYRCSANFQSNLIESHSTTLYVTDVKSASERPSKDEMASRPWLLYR

For N[C@@H](CS)C(=O)O [cysteine, reference compound], the “Inhibition of BTLA/HVEM ligation in ELISA (in words)” value (“Inhibition of BTLA/HVEM ligation” for short) [1] was “prevented partially the binding of HVEM” and the “Blocking of BTLA/HVEM binding in cellular assay (GMFI, in words)” value [2] was “blocked BTLA/HVEM complex formation”.

In the case of N[C@@H](CSSC[C@H](N)C(=O)O)C(=O)O [cystine, reference compound], the “Inhibition of BTLA/HVEM ligation” value [1] is reported as “the inhibitory properties were not observed”.

For CSCC[C@H](N)C(=O)O [methionine, reference compound], the “Inhibition of BTLA/HVEM ligation” value [1] was “the inhibitory properties were not observed”.

With “Ac-ELCAGPVTRKVECTYGE-NH2 [Scrambled peptide, scrambled control of HVEM(23–39), Ac-…-NH2, reference compound]” the “Interaction with BTLA immobilised in microcolumn (in words)” value (from here on “Interaction with BTLA immobilised”) [3] was “did not interact with BTLA immobilized in microcolumn”, the “Inhibition of BTLA/HVEM ligation” value [1] was “has no effect” and the “Presence of free thiol groups” value [4] was “contains free thiol groups”.

In the case of “Ac-ELTGTVCEP-NH2 [HVEM(31–39), 9 amino acid-long HVEM fragment 31–39]”, the “Elution [M+H]+1 (peptide signal in elution fraction = complex with BTLA formed; - = no signal)” value [3] is reported as 989.3 and the “Inhibition of BTLA/HVEM ligation” value [1] is reported as “showed a lower percentage of inhibition than the HVEM(23–39)”.

For “Ac-ELTGTVS^37EP-NH2 [HVEM(31–39) C37S, HVEM(31–39) analog with Cys37 replaced by serine]”, the “Inhibition of BTLA/HVEM ligation” value [1] was “no blocking capacity”.

With “Ac-YRVKEACGELTGTVCEP-NH2 (disulfide 7-15 (inferred); SMILES CC(=O)N[C@@H](Cc1ccc(O)cc1)C(=O)N[C@@H](CCCNC(=N)N)C(=O)N[C@H](C(=O)N[C@@H](CCCCN)C(=O)N[C@@H](CCC(=O)O)C(=O)N[C@@H](C)C(=O)N[C@H]1CSSC[C@@H](C(=O)N[C@@H](CCC(=O)O)C(=O)N2CCC[C@H]2C(N)=O)NC(=O)[C@H](C(C)C)NC(=O)[C@H]([C@@H](C)O)NC(=O)CNC(=O)[C@H]([C@@H](C)O)NC(=O)[C@H](CC(C)C)NC(=O)[C@H](CCC(=O)O)NC(=O)CNC1=O)C(C)C) [HVEM(23–39) (C29-C37), cyclic HVEM(23–39) with disulfide bridge, oxidized cysteines]” the “Elution [M+H]+1 (peptide signal in elution fraction = complex with BTLA formed; - = no signal)” value [3] was 1893.9, the “Interaction with BTLA immobilised” value [3] was “interacted with BTLA in affinity test” and the “Inhibition of BTLA/HVEM ligation” value [1] was “no blocking of BTLA/HVEM interaction was observed”.

For “Ac-YRVKEACGELTGTVCEP-NH2 [HVEM(23–39), HVEM fragment 23–39, Ac-…-NH2, free sulfhydryl groups]”, the “Interaction with BTLA immobilised” value [3] was “complex between BTLA and HVEM(23–39) was formed”, the “Inhibition of BTLA/HVEM ligation” value [1] was “can partially prevent the ligation of HVEM to BTLA, in a dose dependent manner” and the “Blocking of BTLA/HVEM binding in cellular assay (GMFI, in words)” value [2] was “almost no blocking of the BTLA/HVEM binding was observed”. The “Presence of free thiol groups” value [4] was “observed free thiol groups”, the “Concentration of free thiol groups after 2 hours of incubation, peptide alone” value ([4]; Ellman's assay, pH 7.4, peptide alone, 2 hours, suggests a fraction of the peptide is oxidized) was “lower” and the “Concentration of free thiol groups over time, peptide incubated with BTLA-Fc” value ([4]; Ellman's assay, pH 7.4, peptide mixed with recombinant BTLA-Fc (ratio 1:1)) was “decrease in the concentration of free thiol groups over time, which was more pronounced than in the condition where the peptide was alone”.

In the case of “Ac-YRVKEAS^29GELTGTVCEP-NH2 [HVEM(23–39) C29S, HVEM(23–39) analog with Cys29 replaced by serine]”, the “Elution [M+H]+1 (peptide signal in elution fraction = complex with BTLA formed; - = no signal)” value [3] is reported as 1879.7.

With “Ac-YRVKEAY^29GELTGTVCEP-NH2 [HVEM(23–39) C29Y, HVEM(23–39) analog with Cys29 replaced by tyrosine]” the “Elution [M+H]+1 (peptide signal in elution fraction = complex with BTLA formed; - = no signal)” value [3] was 1955.7.

For “C29A: single alanine-substituted HVEM(23–39) variant, cysteine 29 replaced by alanine (Ac-YRVKEAAGELTGTVCEP-NH2)”, the “Inhibition of BTLA/HVEM ligation” value [1] was “significant reduction of the inhibition”.

With “C37A: single alanine-substituted HVEM(23–39) variant, cysteine 37 replaced by alanine (Ac-YRVKEACGELTGTVAEP-NH2)” the “Inhibition of BTLA/HVEM ligation” value [1] was “significant reduction of the inhibition”.

B1: HVEM(23–39) peptide (peptide)
peptide: YRVKEACGELTGTVCEP
modifications: not fully specified; N-terminal acetyl (Ac-); C-terminal amide (-NH2)
notes: herpes virus entry mediator (HVEM), human, residues 23-39 of the CRD1 domain; Linear, with two free sulfhydryl groups; also called HVEM(23–39) fragment; wild-type peptide HVEM(23–39); source: synthetic peptide (SPPS, RP-HPLC purified)
B1: binds [5].

B2: HVEM(31–39) (peptide)
peptide: Ac-ELTGTVCEP-NH2
notes: herpes virus entry mediator (HVEM), human, residues 31-39; also called HVEM (31–39) fragment; source: synthetic peptide (SPPS, RP-HPLC purified)
B2: binds [5].
